From patent publication US7919480B2, “Polymers having covalently bound antibiotic agents” (Ethicon, Inc., priority 2007, dated 2011) come the findings set out here.

In this assay the test system is S. aureus ATCC 6538. The assay can be described thus: log reduction assay (Example 4). The format is cell-based. As to the method: Sample of ONM covalently bound to ORC (ORC-ONM-CV) from example 3 were tested for its in vitro efficacy by log reduction assay. In the log reduction assay, the test articles (squares of about 4.0 mg/piece) were challenged with about 1-2×10e4 CFU bacteria on the surface of the test articles for one hour. To facilitate the test of efficacy on surface of the test articles with covalent bound ONM, the inoculum was delivered in 10 ul/item, the small volume relative to the test articles allowed complete absorption of the inoculum by the test articles such that the inoculum localized on surfaces of the test articles. The inoculum was prepared in 20× potassium phosphate buffer, which maintained pH of the test articles close to neutral. The antimicrobial efficacy of ORC at neutral pH will be minimized, so that the log reduction would indicate the antibacterial efficacy of ONM rather than ORC. After the challenge, the test article was immersed in saline with shaking to remove survival bacteria and the survival bacteria were measured by plate count. The plate counts were conducted in trypticase soy agar and incubated at 37° C. for 24 hours.

Where the note is “log CFU of inoculum − log CFU of treated, 1 h challenge”, POLYQUATERNIUM 1 [ONM control] returned a log reduction of 4.2 log. For the same sequence, the “log CFU” value (surviving bacteria after 1 h challenge with about 1-2x10e4 CFU, neutral pH) is listed as 0.3 log CFU.
